Source: patent US9447136B2, “Semisynthetic derivatives of Nystatin A1” (BLIRT S.A., priority 2012, dated 2016)
Like-named read-outs stand apart in the source and are kept apart here.

Key:
Human erythrocytes = assay: Hemotoxicity (hemolytic activity); conditions: for Hemotoxicity BEH50: 37° C., 30 minutes, concentration causing 50% hemolysis, maximum concentration 300 μg/ml
Description: The hemotoxicity determination were carried out by the serial dilutions method, according to the procedure described earlier (Ślisz, M., et al., E., J Antibiot 57: 669-678 (2004)). Human erythrocytes were suspensed in the solution of saline to obtain a cell density of suspension 2×10^7/ml. Suitable amounts of diluted solutions of compounds were added to the cell suspension in tubes and were incubated at 37° C. for 30 minutes and then centrifuged (1700×g, 10 min, 4° C.). The concentration of hemoglobin in supernatant after centrifugation of erythrocytes suspension were determined by measuring the absorbance at wavelength λ=540 nm (A540). The maximum level of hemolysis was obtained after incubation of cells suspension in the presence of 0.1% Tritone X-100 (control sample). […] From these graphs, the EH50 values were read which are the interpolated concentrations of compound, for which the A540 value is exactly 50% of the A540 value measured for the control sample.

[1] = system: Saccharomyces cerevisiae ATCC 9763; assay: Antifungal activity in vitro, serial dilution in RPMI 1640; format: cell-based; conditions: Table 2A; RPMI 1640, pH 7.0; A531 at most 20% of control
Description: (§1) For the determination of antifungal activity in vitro we used method of serial dilution in buffered medium RPMI 1640, pH 7.0, in a 96-wells microplates, according to the standard procedure (National Committee for Clinical Laboratory Standards. Reference method for broth dilution antifungal susceptibility testing of yeast, approved standard, 2nd ed. M27-A2 vol. 22 Wayne, Pa., 2002). The optical density of cells suspension was measured using a microplates reader (Victor^3, Perkin-Elmer) at the wavelength λ=531 nm (A531). On the basis of obtained results the diagrams of relation between A531 values and concentration of examined compound were made. From these graphs, the IC50 values were read, which were the interpolated concentrations of a tested compound, at which the A531 value was exactly 50% of the A531 value for the control sample. Moreover, MIC values, that are the lowest concentration of tested compound at which the A531 value were at most 20% of the A531 value measured for the control sample.

[2] = system: Candida lusitaniae DSM 70102; assay: as above; format: cell-based; conditions: Table 2A; RPMI 1640, pH 7.0
Description: as §1

[3] = system: Candida glabrata DSM 11226; assay: as above; format: cell-based; conditions: Table 2A; RPMI 1640, pH 7.0
Description: as §1

[4] = system: Candida albicans ATCC 10231; assay: as above; format: cell-based; conditions: Table 2A, RPMI 1640, pH 7.0; for Antifungal activity Candida albicans ATCC 10231 IC50: A531 50% of control; for Antifungal activity Candida albicans ATCC 10231 MIC: A531 at most 20% of control
Description: as §1

[5] = system: Candida tropicalis KKP 334; assay: as above; format: cell-based; conditions: Table 2A; RPMI 1640, pH 7.0
Description: as §1

Candida krusei DSM 6128 = assay: as above; format: cell-based; conditions: Table 2A; RPMI 1640, pH 7.0
Description: as §1

CCRF-CEM = assay: Cytotoxic activity against mammalian cells in tissue culture (MTT); format: cell-based, human
Description: (§2) For examinations were used selected cell lines: CCRF-CEM—human acute lymphoblastic leukemia; HepG2—human malignant hepatoma; LLC-PK1—epithelial cell of pig kidney; All lines were from ATCC collection.
(§3) The study are conducted using described below methods of culturing and determination of cytotoxic activity.
(§4) CCRF-CEM cells were cultured in medium RPMI 1640+10% fetal bovine serum (FBS), LLC-PK1 cells in medium Medium 199+3% FBS, HepG2 cells in medium MEM+10% FBS. All media contained 100 μg/ml of penicillin G and streptomycin. 24-wells microplates containing appropriate medium were inoculated with the cells in amount of 1.2×10^4 cells/well and allowed to stand overnight. Next, tested compounds as solution in dimethylsulfoxide (DMSO) were added in volume of 10 μl (serial 2× dilutions). To control well 10 μl of DMSO was added. Microplates with cell suspensions were incubated for 120 h at temperature 37° C. at atmosphere of 95%/5% CO2. After incubation, to all wells 200 μl of solution of 3-(4,5-dimethylthiazole-2-yl)-2,5-diphenylotetrazole bromide (MTT) in PBS (4 mg/ml) was added and plates were further incubated for 4 h at 37° C. Next, to dissolve crystals of formazane 1 ml of DMSO was added and absorption of solutions was measured at the wavelength λ=540 nm (A540), using a microplates reader (Victor^3, Perkin-Wallac). […] From these graphs IC50 values were read, that is concentration of tested compound in the presence at which A540 value is half of A540 value measured in the control sample.

HepG2 = assay: as above; format: cell-based, human
Description: as §2, §3, §4

LLC-PK1 = assay: as above; format: cell-based, pig
Description: as §2, §3, §4

[6] = human erythrocytes, concentration causing 10% of hemolysis

Compound | EH10 (Human erythrocytes; [6]) [µg/mL] | Antifungal activity Saccharomyces cerevisiae ATCC 9763 MIC [1] [µg/mL] | Antifungal activity Candida lusitaniae DSM 70102 MIC [2] [µg/mL] | Antifungal activity Candida glabrata DSM 11226 MIC [3] [µg/mL] | Antifungal activity Candida albicans ATCC 10231 IC50 [4] [µg/mL] | Antifungal activity Candida albicans ATCC 10231 MIC [4] [µg/mL] | Antifungal activity Candida tropicalis KKP 334 MIC [5] [µg/mL] | Antifungal activity Candida krusei DSM 6128 MIC (Candida krusei DSM 6128) [µg/mL] | Hemotoxicity BEH50 (Human erythrocytes; human erythrocytes) [µg/mL] | Cytotoxicity IC50 CCRF-CEM (CCRF-CEM; CCRF-CEM, 120 h, MTT) [µg/mL] | Cytotoxicity IC50 HepG2 (HepG2; HepG2, 120 h, MTT) [µg/mL] | Cytotoxicity IC50 LLC-PK1 (LLC-PK1; LLC-PK1, 120 h, MTT) [µg/mL] | EH10 (Human erythrocytes) [µg/mL] | % of hemolysis at the concentration 60 μg ml^−1 (Human erythrocytes; human erythrocytes, 60 μg ml^−1) [%] | Cytotoxicity IC50 CCRF-CEM (CCRF-CEM) [µg/mL] | Cytotoxicity IC50 HepG2 (HepG2) [µg/mL] | Cytotoxicity IC50 LLC-PK1 (LLC-PK1) [µg/mL]
CC1OC(O[C@H]2/C=C/C=C/C=C/C=C/CC/C=C/C=C/[C@H](C)[C@@H](O)[C@@H](C)[C@H](C)OC(=O)C[C@H](O)C[C@H](O)C[C@H](O)CC[C@@H](O)[C@H](O)CC3(O)C[C@H](O)[C@@H](C(=O)O)[C@H](C2)O3)C(O)C(NC2CC(=O)N(CCN3CCCCC3)C2=O)C1O (stereo partly drawn) [Compound N8, N—[N′-2-(piperidin-1-yl)ethylsuccinimidyl]nystatin A1] | 150.73 | 2 | 2 | 4 | 1.54 | 2 | 2 | 4 |  |  |  |  |  |  |  |  | 
CC1OC(O[C@H]2/C=C/C=C/C=C/C=C/CC/C=C/C=C/[C@H](C)[C@@H](O)[C@@H](C)[C@H](C)OC(=O)C[C@H](O)C[C@H](O)C[C@H](O)CC[C@@H](O)[C@H](O)CC3(O)C[C@H](O)[C@@H](C(=O)O)[C@H](C2)O3)C(O)C(NCc2ccccc2)C1O (stereo partly drawn) [Compound N21, N-benzylnystatin A1] | 91.60 | 2 |  | 4 | 2.32 | 4 | 4 | 4 | 188.56 | 91.9 ± 4.35 | 68.3 ± 8.06 | >100 |  |  |  |  | 
C[C@@H]1[C@H](O)[C@@H](C)/C=C/C=C/CC/C=C/C=C/C=C/C=C/[C@H](O[C@@H]2O[C@H](C)[C@@H](O)[C@H](N(C)C)[C@@H]2O)C[C@@H]2O[C@](O)(C[C@@H](O)C[C@@H](O)[C@H](O)CC[C@@H](O)C[C@@H](O)CC(=O)O[C@H]1C)C[C@H](O)[C@H]2C(=O)O [Compound N23, N,N-dimethylnystatin A1] |  | 4 | 2 | 8 | 2.47 | 4 | 4 | 8 |  |  |  |  | 214.20 |  |  |  | 
CC1OC(O[C@H]2/C=C/C=C/C=C/C=C/CC/C=C/C=C/[C@H](C)[C@@H](O)[C@@H](C)[C@H](C)OC(=O)C[C@H](O)C[C@H](O)C[C@H](O)CC[C@@H](O)[C@H](O)CC3(O)C[C@H](O)[C@@H](C(=O)O)[C@H](C2)O3)C(O)C(NC(=O)[C@@H](N)Cc2ccccc2)C1O (stereo partly drawn) [Compound N34, N-L-phenylalanylnystatin A1] |  | 4 |  | 8 | 6.01 | 8 | 8 | 8 | >300 | >100 | >100 |  |  | 0.02 |  |  | 
CC1OC(O[C@H]2/C=C/C=C/C=C/C=C/CC/C=C/C=C/[C@H](C)[C@@H](O)[C@@H](C)[C@H](C)OC(=O)C[C@H](O)C[C@H](O)C[C@H](O)CC[C@@H](O)[C@H](O)CC3(O)C[C@H](O)[C@@H](C(=O)O)[C@H](C2)O3)C(O)C(NC(=O)[C@H](N)Cc2cccc3ccccc23)C1O (stereo partly drawn) [Compound N39] |  | 8 |  | 16 | 6.05 | 8 | 8 | 16 |  |  |  |  |  |  | >100 | >100 | >100
N,N-diethylnystatin A1 [Compound N24] |  | 8 | 4 | 16 | 3.82 | 8 | 8 | 16 |  |  |  |  |  |  |  |  | 
N-{3-[2-(morpholin-1-yl)ethyl]thioureidyl}nystatin A1 [Compound N13] |  | 8 | 8 | 16 | 3.88 | 8 | 8 | 16 |  |  |  |  |  |  |  |  | 
N-{3-[2-(piperidin-1-yl)ethyl]thioureidyl}nystatin A1 [Compound N12] |  | 8 | 4 | 8 | 4.20 | 8 | 8 | 16 |  |  |  |  |  |  |  |  | 
N-{3-[3-(imidazo-1-yl)propyl]thioureidyl}nystatin A1 [Compound N20] |  | 8 | 8 | 16 | 6.47 | 8 | 8 | 16 |  |  |  |  |  |  |  |  | 
N—[N′-2-(pyrrolidin-1-yl)ethylsuccinimidyl]nystatin A1 [Compound N11] |  | 8 | 4 | 8 | 3.91 | 8 | 8 | 8 |  |  |  |  |  |  |  |  | 
